Data as given in PMC10508264, “Exploring the antioxidant, antimicrobial, cytotoxic and biothermodynamic properties of novel morpholine derivative bioactive Mn(II), Co(II) and Ni(II) complexes – combined experimental and theoretical measurements towards DNA/BSA/SARS-CoV-2 3CL^Pro” (RSC Medicinal Chemistry, 2023).

Tested on: CT-DNA
Experiment: DNA binding by cyclic voltammetry
Settings: for Kb, method I, Oxi: oxidation; for Kb, method I, red: reduction
Protocol: The changes in peak current as well as peak potential were monitored while concentrations of CT-DNA were increased (0–10 μM) in each sample solution.[13,36]
The CV approach is one of the most important methods for evaluating the binding mechanism of a DNA–complex adduct. The CV properties of all test samples in the presence and absence of DNA were executed at a scan rate (v) of 0.1 V s^−1 with a potential range of +2 to −2 in a Tris–HCl (5 mM)/NaCl (50 mM) (pH = 7.2) solution. The M^1+/M^2+ redox couple is caused by complexes that reveal a single anodic and cathodic peak. […] (Fig. S31 ^† and Table 6).
ΔEP is peak-to-peak separation = (EPa − EPc); E° (or E1/2) denotes the formal electrode potential = 1/2(EPa + EPc); [drawing 41] [drawing 42] and [drawing 43] represent the formal electrode potential of the M^1+/M^2+ couple in the bound and free forms, respectively. [drawing 44] = +19 mV (HL), +18 mV (1), +16 mV (2), +16 mV (3). Ipa is anodic peak current, Ipc is cathodic peak current. K^1+ is the binding constant of the reduction process, K^2+ is the binding constant of the oxidation process. S represents the binding site size of base pairs (bp) with a molecule of complex, scan rate is 100 mV s^−1, binding constant (Kb) values observed from the linear plots of log(1/[DNA]) versus log(I/I0 − I) for oxidation and reduction, (I0 − IDNA)/IDNA = Cp/Cfversus [DNA] and I^2p versus(I^2po − I^2p)/[DNA] by methods I, II and III, respectively.
While the substances often bind to DNA through intercalation, the peak potential shifts in a positive direction. When the compounds bind to DNA through minor or major grooves or electrostatic attractions, the peak potential shifts occur in a negative direction. It was observed that the consistent movement of peak potential shifts in the positive direction during increments of DNA with test substances. The binding mode in compound–DNA adducts has been described as primarily intercalation (Fig. S31 ^†), and it is also attributed to the presence of 2,2′-bipyridine and morpholine fused aromatic planar systems in mixed ligand complexes, which can create inclusion through intercalation due to hydrophobic and π–π stacking interactions in the DNA base pairs. It is also supported by the evaluated outcomes from UV-vis spectral, emission titration, viscometric, and biothermodynamic properties. Furthermore, the observed values of Kb, S, and the ratio of binding constants (K^1+/K^2+) for M^1+/M^2+ couple systems further confirmed the binding affinity via intercalation. Also, the subsequent eqn (24)–(35) are applied to determine the above parameters.[88,89]Eqn (24) is acquired from modification of the Stern–Volmer eqn (14) (Table 6). The Kb values for all samples were estimated from the linear regression plot of log(1/[DNA]) versus log(I/I0 − I) by method I (Fig. S32 ^† and Table 6). Eqn (26) was obtained from revision of eqn (25). Also, binding site size (S, bp) and Kb are estimated from eqn (30) from the linear regression plot of (Cp/Cf) versus [DNA] by method-II[90–92] (Fig. S33 ^† and Table 6). In addition, base-pair sites with a molecule of the compound are referred to as “binding site size” (S), and the evaluated S values were found in the range from 0.1718 to 0.4599 bp. […] In the Nernst eqn (31) and (32) for the galvanic cell, [drawing 58] , the formal electrode potentials of the M^1+/M^2+ couple in their bound and free forms are E1/2 or [drawing 59] and [drawing 60] , respectively. As a result of the variable binding state [M^1+/M^2+] and the delayed mass transfer of test compounds that interacted with DNA fragments, the addition of DNA to the compound solution enabled a change in the redox potential to a higher positive direction and a drop in both anodic and cathodic peak currents. In particular, the equilibrium of M^1+/M^2+ is influenced by electrostatic or hydrophobic interactions.

[Mn+2].[O-]c1ccccc1N=Cc1ccc(N2CCOCC2)cc1.[O-]c1ccccc1N=Cc1ccc(N2CCOCC2)cc1.c1ccc(-c2ccccn2)nc1 [(1)]
Kb, method II: 14873 M⁻¹ | Kb, method III: 10713 M⁻¹ | Kb, method I, Oxi: 10020 M⁻¹ | Kb, method I, red: 7890 M⁻¹

[Co+2].[O-]c1ccccc1N=Cc1ccc(N2CCOCC2)cc1.[O-]c1ccccc1N=Cc1ccc(N2CCOCC2)cc1.c1ccc(-c2ccccn2)nc1 [(2)]
Kb, method II: 41119 M⁻¹ | Kb, method III: 15999 M⁻¹ | Kb, method I, Oxi: 14210 M⁻¹ | Kb, method I, red: 11330 M⁻¹

[Ni+2].[O-]c1ccccc1N=Cc1ccc(N2CCOCC2)cc1.[O-]c1ccccc1N=Cc1ccc(N2CCOCC2)cc1.c1ccc(-c2ccccn2)nc1 [(3)]
Kb, method II: 6072 M⁻¹ | Kb, method III: 16031 M⁻¹ | Kb, method I, Oxi: 11440 M⁻¹ | Kb, method I, red: 9156 M⁻¹

Oc1ccccc1N=Cc1ccc(N2CCOCC2)cc1 [(HL), 2-(4-morpholinobenzylideneamino)phenol]
Kb, method II: 2443 M⁻¹ | Kb, method III: 4837 M⁻¹ | Kb, method I, Oxi: 5280 M⁻¹ | Kb, method I, red: 3809 M⁻¹
